Measured values published in patent US11447504B2, “Macrocyclic chlorine substituted indole derivatives” (Bayer Aktiengesellschaft, priority 2017, dated 2022).
Where a name gives a salt, the structure may show the parent alone. Read-outs that look alike come from different tables or passages of the source.

What was measured:
HMC-1-8 = experiment: Antiproliferation assay 7, HMC-1-8; type: cell-based; conditions: HMC-1-8 cells, CellTiter-Glo, read-out: Antiproli HMC-1-8 IC50 median
Protocol: Assessment of the Anti-Proliferative Effect of Compounds in Different Cell Lines
The impact of compounds on the proliferation of different cell lines was assessed using the CellTiter-Glo® Luminescent Cell Viability reagent from Promega (G7573).
In parallel, cells were plated in a reference (day 0) plate for time zero determination.
Rim wells were excluded. The cells were incubated for 72 hours in a humidified incubator at 37° C. The day 0 plate was measured by adding 30 μL/well of CTG solution (CellTiter-Glo® Luminescent Cell Viability reagent, Promega G7573) to time zero wells in the reference plate followed by a 10 minutes incubation and luminescence reading at 0.1 ms. using the PHERAstar FS microplate reader (BMG Labtech).
After 72 hours incubation, the treated plates were measured in the same way as the day 0 plate mentioned above.

AMO-1 = experiment: Antiproliferation assay 7, AMO-1; type: cell-based; conditions: AMO-1 cells, CellTiter-Glo, read-out: Antiproli AMO-1 IC50 median
Procedure, shortened: (§1)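 Proliferation was read by CellTiter-Glo luminescence after 72 hours of compound treatment at 37° C. The read was referenced to a parallel plate measured at time zero.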

SUDHL5 [1] = experiment: Induction of caspase-3/7 activity (Assay 4), SUDHL5; type: cell-based; conditions: SUDHL5 cells
Procedure, shortened: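 DLBCL cells treated with compounds for 3 hours at 37° C. Caspase-3/7 activity measured by Caspase-Glo 3/7 luminescence, with medium-only background subtracted.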

SUDHL5 [2] = experiment: Induction of cytotoxicity (Assay 6), SUDHL5
SUDHL5 [3] = experiment: Antiproliferation assay 7, SUDHL5; type: cell-based; conditions: SUDHL5 cells, CellTiter-Glo, read-out: Antiproli SUDHL5 IC50 (median)
Procedure, shortened: as §1

SUDHL10 [4] = experiment: Induction of caspase-3/7 activity (Assay 4), SUDHL10; type: cell-based; conditions: SUDHL10 cells
Procedure, shortened: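 Luminescent Caspase-Glo 3/7 read-out after a 3 h, 37 °C compound exposure of the DLBCL line SUDHL10. Values are background-corrected using medium-only wells.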

MV-4-11 = experiment: Antiproliferation assay 7, MV-4-11; type: cell-based; conditions: MV-4-11 cells, CellTiter-Glo, read-out: Antiproli MV-4-11 IC50 median
Procedure, shortened: as §1

SUDHL10 [5] = experiment: Induction of cytotoxicity (Assay 6), SUDHL10
Protocol: Assay 6 Induction of Cytotoxicity Upon Treatment of Cells with Selected Compounds
Therefore, cytotoxicity assays were run in parallel in SUDHL5 and SUDHL10 cells.
The different cell lines were plated in culture medium (RPMI 1640 [GIBCO #22400-089]supplemented with 10% Fetal Bovine Serum) at a density of 3,300 cells in 30 μL/well in a sterile, solid black, flat bottom, polystyrene, TC-treated 384-well microplate (Corning #3571) using Multidrop Combi Reagent Dispenser. As a control, medium without cells was also added to the plate. Cells were incubated in a humidified incubator at 37° C. overnight. […] Rim wells were excluded. The cells were incubated for 5 hours in a humidified incubator at 37° C. After this incubation, 30 μL of CellTiter-Glo® Luminescent Cell Viability reagent (Promega, G7573) was added to each well using the Multidrop Combi Reagent Dispenser, followed by 15 minutes incubation on a shaker at room temperature. Finally, luminescence was read at 0.1 ms, with a gain of 3000 using the PHERAstar FS microplate reader (BMG Labtech).

[6] = 3 hours, Caspase-Glo 3/7, read-out: Caspase SUDHL5 EC50 (median)
[7] = read-out: Cytotox SUDHL5 IC50 (median), SUDHL5 cells, 5 hours, CellTiter-Glo
[8] = 3 hours, Caspase-Glo 3/7, read-out: Caspase SUDHL10 EC50 (median)
[9] = read-out: Cytotox SUDHL10 IC50 (median), SUDHL10 cells, 5 hours, CellTiter-Glo
[10] = Homo sapiens, SU-DHL-5, 3 h, Caspase-Glo 3/7, read-out: Caspase SUDHL5 EC50 (median)
[11] = Homo sapiens, SU-DHL-5, 5 h, read-out: Cytotox SUDHL5 IC50 (median), SUDHL5 cells, 5 hours, CellTiter-Glo

Row | EC50 (SUDHL5 [1]; [6]) | IC50 (SUDHL5 [3]; 72 hours) | EC50 (SUDHL10 [4]; [8]) | IC50 (MV-4-11; 72 hours) | SMILES | IC50 (HMC-1-8; 72 h) | IC50 (AMO-1; 72 hours) | IC50 (SUDHL5 [2]; [7]) | IC50 (SUDHL10 [5]; [9]) | IC50 (AMO-1; Homo sapiens, AMO1, 72 h) | EC50 (SUDHL5 [1]; [10]) | IC50 (SUDHL5 [2]; [11]) | IC50 (SUDHL5 [3]; Homo sapiens, SU-DHL-5, 72 h) | EC50 (SUDHL10 [4]; Homo sapiens, SU-DHL10, 3 h, Caspase-Glo 3/7, read-out: Caspase SUDHL10 EC50 (median)) | IC50 (MV-4-11; Homo sapiens, MV4-11, 72 h) | IC50 (SUDHL10 [5]; Homo sapiens, SU-DHL10, 5 h, read-out: Cytotox SUDHL10 IC50 (median), SUDHL10 cells, 5 hours, CellTiter-Glo) | IC50 (HMC-1-8; 72 hours)
1 | 130 nM | 230 nM | 340 nM | 79.4 nM | CCc1c2c(nn1C)CN(C)CCCCn1c(C(=O)O)c(CCCOc3cccc4cc(F)ccc34)c3ccc(Cl)c-2c31 (single isomer, unassigned; enantiomer 1) [Example 6, 4-chloro-3-ethyl-7-{3-[(6-fluoronaphthalen-1-yl)oxy]propyl}-2,14-dimethyl-10,11,12,13,14,15-hexahydro-2H-pyrazolo[3′,4′:8,9][1,6]diazacycloundecino[10,11,1-hi]indole-8-carboxylic Acid (Enantiomer 1)] | 1210 nM | 369 nM | 190 nM | 350 nM |  |  |  |  |  |  |  | 
2 |  |  |  |  | Cc1c2c(nn1C)COCCCCn1c(C(=O)O)c(CCCOc3cccc4cc(F)ccc34)c3ccc(Cl)c-2c31 (single isomer, unassigned; enantiomer 1) [Example 16, (−)-4-chloro-7-{3-[(6-fluoronaphthalen-1-yl)oxy]propyl}-2,3-dimethyl-2,10,11,12,13,15-hexahydropyrazolo[4′,3′:9,10][1,6]oxazacycloundecino[8,7,6-hi]indole-8-carboxylic Acid (Enantiomer 1)] | 1250 nM |  |  |  | 519 nM | 150 nM | 220 nM | 210 nM | 380 nM | 524 nM | 660 nM | 
3 | 92 nM |  |  | 387 nM | CCc1c2c(nn1C)CN(C)CCCCn1c(C(=O)O)c(CCCOc3cccc4ccccc34)c3ccc(Cl)c-2c31 (single isomer, unassigned; enantiomer 1) [Example 23, 4-chloro-3-ethyl-2,14-dimethyl-7-[3-(naphthalen-1-yloxy)propyl]-10,11,12,13,14,15-hexahydro-2H-pyrazolo[3′,4′:8,9][1,6]diazacycloundecino[10,11,1-hi]indole-8-carboxylic Acid (Enantiomer 1)] | 5160 nM |  | 140 nM | 310 nM | 613 nM |  |  |  |  |  |  | 
4 | 380 nM | 620 nM |  | 1260 nM | CCc1nn(C)c2c1-c1c(Cl)ccc3c(CCCOc4cccc5cc(F)ccc45)c(C(=O)O)n(c13)CCCCOC2 (single isomer, unassigned; enantiomer 1) [Example 34, (+)-4-chloro-3-ethyl-7-{3-[(6-fluoronaphthalen-1-yl)oxy]propyl}-1-methyl-1,10,11,12,13,15-hexahydropyrazolo[4′,3′:9,10][1,6]oxazacycloundecino[8,7,6-hi]indole-8-carboxylic Acid (Enantiomer 1)] | 2030 nM | 1410 nM | 530 nM |  |  |  |  |  |  |  |  | 
5 | 170 nM | 280 nM |  | 377 nM | CCc1c2c(nn1C)COCCCCn1c(C(=O)O)c(CCCOc3cccc4cc(F)ccc34)c3ccc(Cl)c-2c31 (single isomer, unassigned; enantiomer 1) [Example 37, (+)-4-chloro-3-ethyl-7-{3-[(6-fluoronaphthalen-1-yl)oxy]propyl}-2-methyl-2,10,11,12,13,15-hexahydropyrazolo[4′,3′:9,10][1,6]oxazacycloundecino[8,7,6-hi]indole-8-carboxylic acid-N-ethylethanamine Salt (Enantiomer 1)] | 1130 nM | 363 nM | 200 nM |  |  |  |  |  |  |  |  | 
6 | 140 nM | 150 nM | 310 nM | 95.5 nM | CCc1nn(C)c2c1-c1c(Cl)ccc3c(CCCOc4cccc5cc(F)ccc45)c(C(=O)O)n(c13)CCCCN(C)C2 (single isomer, unassigned; enantiomer 1) [Example 40, 4-chloro-3-ethyl-7-{3-[(6-fluoronaphthalen-1-yl)oxy]propyl}-1,14-dimethyl-10,11,12,13,14,15-hexahydro-1H-pyrazolo[3′,4′:8,9][1,6]diazacycloundecino[10,11,1-hi]indole-8-carboxylic Acid (Enantiomer 1)] | 695 nM | 539 nM | 110 nM | 290 nM |  |  |  |  |  |  |  | 
7 | 220 nM | 320 nM | 170 nM |  | CCc1c2c(nn1C)N(CCC1CCOCC1)CCCCCn1c(C(=O)O)c(CCCOc3cccc4cc(F)ccc34)c3ccc(Cl)c-2c31 (single isomer, unassigned; enantiomer 1) [Example 81, 4-chloro-3-ethyl-7-{3-[(6-fluoronaphthalen-1-yl)oxy]propyl}-2-methyl-15-[2-(oxan-4-yl)ethyl]-10,11,12,13,14,15-hexahydro-2H-pyrazolo[4′,3′:4,5][1,6]diazacycloundecino[3,2,1-hi]indole-8-carboxylic acid N-ethylethanamine Salt—Enantiomer 1] | 1900 nM |  | 290 nM | 230 nM | 120 nM |  |  |  |  |  |  | 
8 | 7600 nM | 3900 nM | 13000 nM |  | Cc1c2c(nn1C)COCC(F)(F)CCn1c(C(=O)O)c(CCCOc3cccc4ccccc34)c3ccc(Cl)c-2c31 (single isomer, unassigned; enantiomer 2) [Example 57, 4-chloro-12,12-difluoro-2,3-dimethyl-7-{3-[(naphthalen-1-yl)oxy]propyl}-2,10,11,12,13,15-hexahydropyrazolo[4′,3′:9,10][1,6]oxazacycloundecino[8,7,6-hi]indole-8-carboxylic acid-N-ethylethanamine Salt—Enantiomer 2] |  | 11800 nM | 6900 nM | 10000 nM |  |  |  |  |  |  |  | 8680 nM
9 | 9000 nM | 20000 nM | 27000 nM |  | Cc1c2c(nn1C)CN(CC(F)(F)F)CCCCn1c(C(=O)O)c(CCCOc3cccc4cc(F)ccc34)c3ccc(Cl)c-2c31 (single isomer, unassigned; enantiomer 2) [Example 60, 4-chloro-7-{3-[(6-fluoronaphthalen-1-yl)oxy]propyl}-2,3-dimethyl-14-(2,2,2-trifluoroethyl)-10,11,12,13,14,15-hexahydro-2H-pyrazolo[3′,4′:8,9][1,6]diazacycloundecino[10,11,1-hi]indole-8-carboxylic Acid—Enantiomer 2] |  | 25500 nM | 12000 nM | 26000 nM |  |  |  |  |  |  |  | > 30000 nM
10 | 9700 nM | 13000 nM | 25000 nM |  | Cc1c2c(nn1C)OCCCCCn1c(C(=O)O)c(CCCOc3cccc4cc(F)ccc34)c3ccc(Cl)c-2c31 (single isomer, unassigned; enantiomer 2) [Example 85, 4-chloro-7-{3-[(6-fluoronaphthalen-1-yl)oxy]propyl}-2,3-dimethyl-11,12,13,14-tetrahydro-2H,10H-pyrazolo[3′,4′:2,3][1,6]oxazacycloundecino[4,5,6-hi]indole-8-carboxylic Acid—Enantiomer 2] |  | 6100 nM | 17000 nM | 25000 nM |  |  |  |  |  |  |  | > 30000 nM
11 |  |  | 3100 nM |  | Cc1c2c(nn1C)COCC1CCC1Cn1c(C(=O)O)c(CCCOc3cccc4ccccc34)c3ccc(Cl)c-2c31 (single isomer, unassigned; stereoisomer 1) [Example 63] | 7850 nM | 2560 nM |  | 3300 nM |  | 1400 nM | 1500 nM | 2600 nM |  |  |  | 
